Results reported in the NIST ThermoML archive (doi:10.1021/je3012452).
± gives the expanded uncertainty stated by the source.

How the values were obtained:
[1] = Molar enthalpy of transition or fusion; settings: DSC
[2] = DTA

Row | Structure (SMILES) | Molar enthalpy of transition or fusion ([1]; Crystal) [kcal/mol] | Normal melting temperature ([2]; Crystal) [°C] | Molar enthalpy of transition or fusion ([1]; Crystal 1) [kcal/mol] | Molar enthalpy of transition or fusion ([1]; Crystal 2) [kcal/mol] | Normal melting temperature ([2]; Crystal 1) [°C] | Triple point temperature ([2]; Crystal 2) [K] | Molar enthalpy of transition or fusion ([1]; Crystal 3) [kcal/mol] | Triple point temperature ([2]; Crystal 3) [K]
1 | CC(C)C(N)=O [2-methylpropanamide] | 4.76 ± 0.12 | 128.5 ± 0.9 |  |  |  |  |  | 
2 | CCCC(CCC)C(N)=O [2-propylpentanamide] |  |  | 5.38 ± 0.311 | 0.418 ± 0.105 | 125.1 ± 0.5 | 360.6 ± 0.9 |  | 
3 | CCCCCCC(N)=O [heptanamide] |  |  | 3.87 ± 0.12 | 0.813 ± 0.0478 | 95.5 ± 1.1 | 356.1 ± 0.5 | 1.79 ± 0.143 | 319 ± 1.6
4 | CCCCCC(N)=O [hexanamide] |  |  | 4.02 ± 0.167 | 1.22 ± 0.0717 | 99.2 ± 2.8 | 306.1 ± 0.5 |  | 
